Data on 5 compounds can be found in patent EP0115547B1 (priority 1983, dated 1984).

The data set deals with T7-Phagen. The settings on record: pH 7.

For `CS(=O)(=O)OCCNCC(O)C(O)CNCCOS(C)(=O)=O` (stereo not shown) [1,4-Di-{2'-(methylsulfonyl)-oxy-äthylamino}-1,4-di-{desoxy}-ery-thrit-dimethylsulfat], the “Kehrwert der pyrimidin-dimeräquivalenten Dosis” value is reported as 111 1 Mol . Minute. On the same count and under the same terms, the figure for `CN(Cc1cnc2nc(N)nc(N)c2n1)c1ccc(C(=O)N[C@@H](CCC(=O)O)C(=O)O)cc1` [4-Desoxy-4-amino-10-methylfolsäure] is 11 1 Mol . Minute; for `CC(=O)N1CC1` [N-(Acetyl)-äthylenimin] it is 33 1 Mol . Minute. On the same count and under the same terms, as for `CN(N=O)C(N)=O` [Nitrosomethylharnstoff], the figure is 0,76 1 Mol . Minute. For the compound `Cc1ncc(C[n+]2csc(CCO)c2C)c(N)n1` [Vitamin B1], the “1n [N(t)/N(O)]=-1 zugehörige Bebrütungs- beziehungsweise Inkubationszeit” value is 291 Minuten, the “Kehrwert der pyrimidindimeräquivalenten Dosis” value was 0,03 l/Mol· Minute and the “pyrimidindimeräquivalente Dosis” value stood at 29 Mol - Minute/I.
